Results published in patent US8524705B2, “2-oxo-2-(2-phenyl-5,6,7,8-tetrahydro-indolizin-3-yl)-acetamide derivatives and related compounds as antifungal agents” (F2G Limited British Body Corporate, priority 2007, dated 2013).
≈ marks a conversion by molar mass, not a printed value.

What was measured:
Type in all cases: cell-based
Details in all cases: banded into grades
[1] = tested on: Aspergillus fumigatus AF293; test: Measurement of Minimum Inhibitory Concentrations (MICs), A. fumigatus
Procedure: (§1) Between 1 and 5 mgs of compound were accurately weighed out into a sterile Eppendorf tube. The compound was dissolved in DMSO to give a solution containing 5 mg/mL. Tubes were stored at −20° C. until required. On the day of testing thawed solutions were vortex mixed to ensure homogeneity. 30 μL of solution was removed and added to 570 μL of sterile water in a separate sterile Eppendorf. The thoroughly mixed solution was used to prepare a series of doubling dilutions in water, in a deep well plate. […] replicate plates were prepared using a Minitrak by aspirating […] from each well into eleven clear polystyrene 96 well plates. Spores of Aspergillus spp. (Aspergillus fumigatus [two strains], Aspergillus terreus [two strains], Aspergillus niger and Aspergillus flavus) were harvested from cultures grown on Sabarauds agar for 5 days, and resuspended in PBS/Tween 80 to approx 1×10^7 cfu/mL. Each organism suspension was diluted in YAG medium (1% glucose, 1% ammonium chloride and 0.5% yeast extract) to 0.5-2×10^4 cfu/mL. 80 μL of an organism suspension was added to each well of the plate containing drug dilutions. This produced MIC plates with a drug range 50-0.05 mg/L and organism inocula of 1−2×10^4 cfu/mL for Aspergillus spp. All plates were incubated for 24 hrs at 35° C. Growth was assessed by monitoring the optical density at 485 nm for each well. The MIC of a compound is the lowest drug concentration that inhibits growth of an organism by >70% compared with a drug free control. MICs are recorded as mg/L. In cases where the MIC of an organism is >=0.05 mg/L the MIC is repeated using a concentration range of 0.5-0.0005 mg/L. Other growth media can be used for susceptibility testing, and the activity of the described compounds was also assessed in RPMI medium containing 2% glucose, and 0.135M MOPS buffer. MIC tests in YAG medium have more clear-cut endpoints and have slightly lower MICs than those performed in RPMI medium. The following organisms were tested: Aspergillus flavus, Aspergillus fumigatus AF293 and AF210, Aspergillus niger and Aspergillus terreus AT4 and AT49.

[2] = tested on: Aspergillus terreus AT49; test: Measurement of Minimum Inhibitory Concentrations (MICs), A. terreus 49
Procedure: as §1

[3] = tested on: Aspergillus niger; test: Measurement of Minimum Inhibitory Concentrations (MICs), A. niger
Procedure: as §1

[4] = tested on: Aspergillus flavus; test: Measurement of Minimum Inhibitory Concentrations (MICs), A. flavus
Procedure: as §1

[5] = tested on: Aspergillus terreus AT4; test: Measurement of Minimum Inhibitory Concentrations (MICs), A. terreus
Procedure: as §1

[6] = tested on: Aspergillus fumigatus AF210; test: Measurement of Minimum Inhibitory Concentrations (MICs), A. fumigatus 210
Procedure: as §1

[7] = RPMI medium containing 2% glucose, 0.135M MOPS buffer
[8] = YAG medium, 24 hrs at 35° C., >70% growth inhibition

Row | MIC [1, 7] | MIC [1, 8] | MIC [2, 7] | MIC [2, 8] | MIC [3, 7] | MIC [3, 8] | MIC [4, 7] | MIC [4, 8] | MIC [5, 7] | MIC [5, 8] | MIC [6, 7] | MIC [6, 8] | SMILES
1 | < 1 µg/mL | < 1 µg/mL | < 1 µg/mL | < 1 µg/mL | < 1 µg/mL | < 1 µg/mL | < 1 µg/mL | < 1 µg/mL | < 1 µg/mL | < 1 µg/mL | < 1 µg/mL | < 1 µg/mL | C=C(C)CN1CCN(c2ccc(NC(=O)C(=O)c3c(-c4ccccc4)cc4n3CCCC4)cc2)CC1 [Example 1, N-{4-[4(2-methyl-allyl)-piperazin-1-yl]-phenyl}-2-oxo-2-(2-phenyl-5,6,7,8-tetrahydro-indolizin-3-yl)-acetamide]
2 | < 1 µg/mL | < 1 µg/mL | < 1 µg/mL | < 1 µg/mL | < 1 µg/mL | < 1 µg/mL | < 1 µg/mL | < 1 µg/mL | < 1 µg/mL | < 1 µg/mL | < 1 µg/mL | < 1 µg/mL | CC(C)(C)CN1CCN(c2ccc(NC(=O)C(=O)c3c(-c4ccccc4)cc4n3CCCC4)cc2)CC1 [Example 2, N-{4-[4-(2,2-dimethyl-propyl)-piperazin-1-yl]-phenyl}-2-oxo-2-(2-phenyl-5,6,7,8-tetrahydro-indolizin-3-yl)-acetamide]
3 | < 1 µg/mL | < 1 µg/mL | < 1 µg/mL | < 1 µg/mL | < 1 µg/mL | < 1 µg/mL | < 1 µg/mL | < 1 µg/mL | < 1 µg/mL | < 1 µg/mL | < 1 µg/mL | < 1 µg/mL | Cc1cc(C)nc(N2CCN(c3ccc(NC(=O)C(=O)c4c(-c5ccccc5)cc5n4CCCC5)cc3)CC2)c1 [Example 3, N-{4-[4-(4,6-dimethyl-pyridin-2-yl)-piperazin-1-yl]-phenyl}-2-oxo-2-(2-phenyl-5,6,7,8-tetrahydro-indolizin-3-yl)-acetamide]
4 | < 1 µg/mL | < 1 µg/mL | < 1 µg/mL | < 1 µg/mL | < 1 µg/mL | < 1 µg/mL | < 1 µg/mL | < 1 µg/mL | < 1 µg/mL | < 1 µg/mL | < 1 µg/mL | < 1 µg/mL | Cc1cc(C)nc(N2CCN(c3ccc(NC(=O)C(=O)c4c(C5CCCC5)cc5n4CCCC5)cc3)CC2)c1 [Example 4, 2-(2-cyclopentyl-5,6,7,8-tetrahydro-indolizin-3-yl)-N-{4-[4-(4,6-dimethyl-pyridin-2-yl)-piperazin-1-yl]-phenyl}-2-oxo-acetamide]
5 | < 1 µg/mL | < 1 µg/mL | < 1 µg/mL | < 1 µg/mL | < 1 µg/mL | < 1 µg/mL | < 1 µg/mL | < 1 µg/mL | < 1 µg/mL | < 1 µg/mL | < 1 µg/mL | < 1 µg/mL | Cc1cc(C)nc(N2CCCN(c3ccc(NC(=O)C(=O)c4c(-c5ccccc5)cc5n4CCCC5)cc3)CC2)c1 [Example 5, N-{4-[4-(4,6-dimethyl-pyridin-2-yl)-[1,4]diazepan-1-yl]-phenyl}-2-oxo-2-(2-phenyl-5,6,7,8-tetrahydro-indolizin-3-yl)-acetamide]
6 | > 10 µg/mL | 1 to 10 µg/mL (≈ 1.83 to 18.3 µM) | > 10 µg/mL | 1 to 10 µg/mL (≈ 1.83 to 18.3 µM) | > 10 µg/mL | > 10 µg/mL | > 10 µg/mL | > 10 µg/mL | > 10 µg/mL | > 10 µg/mL | > 10 µg/mL | 1 to 10 µg/mL (≈ 1.83 to 18.3 µM) | Cc1cc(C)nc(N2CCN(c3ccc(N(C)C(=O)C(=O)c4c(-c5ccccc5)cc5n4CCCC5)cc3)CC2)c1 [Example 6, N-{4-[4-(4,6-dimethyl-pyridin-2-yl)-piperazin-1-yl]-phenyl}-N-methyl-2-oxo-2-(2-phenyl-5,6,7,8-tetrahydro-indolizin-3-yl)-acetamide]
7 | < 1 µg/mL | < 1 µg/mL | < 1 µg/mL | < 1 µg/mL | < 1 µg/mL | < 1 µg/mL | < 1 µg/mL | < 1 µg/mL | < 1 µg/mL | < 1 µg/mL | < 1 µg/mL | < 1 µg/mL | Cc1cc(C)nc(N(C)CCN(C)c2ccc(NC(=O)C(=O)c3c(-c4ccccc4)cc4n3CCCC4)cc2)c1 [Example 7, N-[4-({2-[(4,6-Dimethyl-pyridin-2-yl)-methyl-amino]-ethyl}-methyl-amino)-phenyl]-2-oxo-2-(2-phenyl-5,6,7,8-tetrahydro-indolizin-3-yl)-acetamide]
8 | < 1 µg/mL | < 1 µg/mL | < 1 µg/mL | < 1 µg/mL | 1 to 10 µg/mL (≈ 1.82 to 18.2 µM) | 1 to 10 µg/mL (≈ 1.82 to 18.2 µM) | 1 to 10 µg/mL (≈ 1.82 to 18.2 µM) | < 1 µg/mL | < 1 µg/mL | < 1 µg/mL | 1 to 10 µg/mL (≈ 1.82 to 18.2 µM) | < 1 µg/mL | COc1cc(C)nc(N2CCN(c3ccc(NC(=O)C(=O)c4c(-c5ccccc5)cc5n4CCCC5)cc3)CC2)c1 [Example 8, N-{4-[4-(4-Methoxy-6-methyl-pyridin-2-yl)-piperazin-1-yl]-phenyl}-2-oxo-2-(2-phenyl-5,6,7,8-tetrahydro-indolizin-3-yl)-acetamide]
9 | < 1 µg/mL | < 1 µg/mL | < 1 µg/mL | < 1 µg/mL | < 1 µg/mL | < 1 µg/mL | < 1 µg/mL | < 1 µg/mL | < 1 µg/mL | < 1 µg/mL | < 1 µg/mL | < 1 µg/mL | Cc1cc(C)nc(OCCOc2ccc(NC(=O)C(=O)c3c(-c4ccccc4)cc4n3CCCC4)cc2)c1 [Example 9, N-{4-[2-(4,6-Dimethyl-pyridin-2-yloxy)-ethoxy]-phenyl}-2-oxo-2-(2-phenyl-5,6,7,8-tetrahydro-indolizin-3-yl)-acetamide]
10 | < 1 µg/mL | < 1 µg/mL | < 1 µg/mL | < 1 µg/mL | < 1 µg/mL | < 1 µg/mL | < 1 µg/mL | < 1 µg/mL | < 1 µg/mL | < 1 µg/mL | < 1 µg/mL | < 1 µg/mL | Cc1cc(C)nc(N2CCN(c3ccc(NC(=O)C(=O)c4c(C5CCOCC5)cc5n4CCCC5)cc3)CC2)c1 [Example 10, N-{4-[4-(4,6-Dimethyl-pyridin-2-yl)-piperazin-1-yl]-phenyl}-2-oxo-2-[2-(tetrahydro-pyran-4-yl)-5,6,7,8-tetrahydro-indolizin-3-yl]-acetamide]
11 | > 10 µg/mL | > 10 µg/mL | > 10 µg/mL | > 10 µg/mL | > 10 µg/mL | > 10 µg/mL | > 10 µg/mL | > 10 µg/mL | > 10 µg/mL | > 10 µg/mL | > 10 µg/mL | > 10 µg/mL | Cc1cc(C)nc(N2CCN(c3ccc(NC(=O)C(=O)c4c(C5CCN(C)CC5)cc5n4CCCC5)cc3)CC2)c1 [Example 11, N-{4-[4-(4,6-Dimethyl-pyridin-2-yl)-piperazin-1-yl]-phenyl}-2-[2-(1-methyl-piperidin-4-yl)-5,6,7,8-tetrahydro-indolizin-3-yl]-2-oxo-acetamide]
12 | 1 to 10 µg/mL (≈ 2.34 to 23.4 µM) | < 1 µg/mL | 1 to 10 µg/mL (≈ 2.34 to 23.4 µM) | < 1 µg/mL | 1 to 10 µg/mL (≈ 2.34 to 23.4 µM) | < 1 µg/mL | > 10 µg/mL | > 10 µg/mL | 1 to 10 µg/mL (≈ 2.34 to 23.4 µM) | < 1 µg/mL | 1 to 10 µg/mL (≈ 2.34 to 23.4 µM) | < 1 µg/mL | O=C(NC1CCN(c2ccccc2)CC1)C(=O)c1c(-c2ccccc2)cc2n1CCCC2 [Example 12, 2-Oxo-N-(1-phenyl-piperidin-4-yl)-2-(2-phenyl-5,6,7,8-tetrahydro-indolizin-3-yl)-acetamide]
13 | < 1 µg/mL | < 1 µg/mL | < 1 µg/mL | < 1 µg/mL | < 1 µg/mL | < 1 µg/mL | < 1 µg/mL | < 1 µg/mL | < 1 µg/mL | < 1 µg/mL | < 1 µg/mL | < 1 µg/mL | COc1cc(C)cc(N2CCN(c3ccc(NC(=O)C(=O)c4c(-c5ccccc5)cc5n4CCCC5)cc3)CC2)n1 [Example 13, N-{4-[4-(6-Methoxy-4-methyl-pyridin-2-yl)-piperazin-1-yl]-phenyl}-2-oxo-2-(2-phenyl-5,6,7,8-tetrahydro-indolizin-3-yl)-acetamide]
14 | 1 to 10 µg/mL (≈ 1.96 to 19.6 µM) | 1 to 10 µg/mL (≈ 1.96 to 19.6 µM) | < 1 µg/mL | < 1 µg/mL | 1 to 10 µg/mL (≈ 1.96 to 19.6 µM) | 1 to 10 µg/mL (≈ 1.96 to 19.6 µM) | > 10 µg/mL | 1 to 10 µg/mL (≈ 1.96 to 19.6 µM) | < 1 µg/mL | 1 to 10 µg/mL (≈ 1.96 to 19.6 µM) | 1 to 10 µg/mL (≈ 1.96 to 19.6 µM) | 1 to 10 µg/mL (≈ 1.96 to 19.6 µM) | Cc1cc(OCCOc2ccc(NC(=O)C(=O)c3c(-c4ccccc4)cc4n3CCCC4)cc2)cc(C)n1 [Example 14, N-{4-[2-(2,6-Dimethyl-pyridin-4-yloxy)-ethoxy]-phenyl}-2-oxo-2-(2-phenyl-5,6,7,8-tetrahydro-indolizin-3-yl)-acetamide]
